# Assay results reported in PubChem BioAssay (NCI).
#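 Step 1: Grow cells in 96-well plates. Step 2: Expose to compound for 48 hours at 5 concentrations. Step 3: Interpolate endpoints linearly; if unreached, use highest concentration. GI50: concentration for 50% inhibition of growth. TGI denotes the concentration required for complete inhibition of growth.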
# Tests used:
# Assay in all cases: NCI anticancer screen, dose series, 48 h
# [1] = test system: SF-295 CNS
# [2] = test system: COLO 205 colon
# [3] = test system: RPMI-8226 leukemia
# [4] = test system: SK-MEL-28 melanoma
# [5] = test system: PC-3 prostate
# [6] = test system: A498 renal
# [7] = test system: HT29 colon
# [8] = test system: SK-MEL-2 melanoma
# [9] = test system: A549 NSCLC
# [10] = test system: CCRF-CEM leukemia
SMILES,GI50 [1],TGI [1],GI50 [2],TGI [2],GI50 [3],TGI [3],GI50 [4],TGI [4],GI50 [5],TGI [5],GI50 [6],TGI [6],GI50 [7],TGI [7],GI50 [8],TGI [8],GI50 [9],TGI [9],TGI [10],GI50 [10]
CCCCCCCCCNCCCCCCCCC,1.74 µM,3.29 µM,1.77 µM,3.22 µM,1.96 µM,4.18 µM,1.76 µM,3.29 µM,2.03 µM,4.7 µM,9.79 µM,24.5 µM,1.27 µM,2.88 µM,1.8 µM,3.41 µM,2.04 µM,4.08 µM,,
CN(C)CC(/C(Cc1ccccc1)=N\NC(=O)c1ccncc1)c1ccccc1 (stereo not drawn),,68.3 µM,,> 100 µM,,51.6 µM,,> 100 µM,,,,,,> 100 µM,,42.1 µM,,> 100 µM,> 100 µM,
O=C1CCCCCCCCCCC(=O)C2CCOCCOCCOCCC1Cc1cccc(n1)C2,,> 100 µM,,> 100 µM,,> 100 µM,,> 100 µM,,,,> 100 µM,,> 100 µM,,> 100 µM,,> 100 µM,> 100 µM,
O=C1CCCCCCCC/C=C/CCC(c2ccco2)O1 (stereo not drawn),18.6 µM,> 100 µM,68 µM,> 100 µM,13.6 µM,37.6 µM,73.3 µM,> 100 µM,77.8 µM,> 100 µM,,,44.1 µM,> 100 µM,> 100 µM,> 100 µM,> 100 µM,> 100 µM,> 100 µM,27 µM
Cc1cc(O)c(C(=O)CC2(O)C(=O)Nc3c(Cl)cc(Cl)cc32)c(=O)o1 (stereo not drawn),,> 100 µM,,> 100 µM,,> 100 µM,,> 100 µM,,,,> 100 µM,,> 100 µM,,> 100 µM,,> 100 µM,> 100 µM,
COc1ccc2nc(-c3ccccc3)cc(Nc3ccc(C(C)=O)cc3)c2c1,,1.57 µM,16.4 µM,> 100 µM,1.72 µM,4.31 µM,29.5 µM,> 100 µM,1.16 µM,4.63 µM,,,9.89 µM,> 100 µM,38.7 µM,> 100 µM,11.9 µM,60.3 µM,,
c1nc2cscc2c2cscc12,,> 100 µM,,,,> 100 µM,,> 100 µM,,,,> 100 µM,,> 100 µM,,> 100 µM,,> 100 µM,> 100 µM,
c1cc2c(cc1C(N1CCNCC1)N1CCNCC1)OCO2,,> 100 µM,,> 100 µM,,> 100 µM,,> 100 µM,,> 100 µM,,> 100 µM,,> 100 µM,,> 100 µM,,> 100 µM,,
Clc1ccc(-n2nnc(C3=NCCCN3)c2-c2ccccc2)cc1,,> 100 µM,,> 100 µM,,> 100 µM,,> 100 µM,,,,> 100 µM,,> 100 µM,,> 100 µM,,> 100 µM,> 100 µM,
COC(=O)/C=C(C)/C=C/c1cc(C(C)=O)c(C)o1,,> 100 µM,,,,> 100 µM,,,,,,,,> 100 µM,,> 100 µM,,> 100 µM,> 100 µM,
Cc1ccccc1C(=O)C#Cc1cn(C2CC(O)C(CO)O2)c(=O)[nH]c1=O (stereo not drawn),,> 100 µM,,> 100 µM,,> 100 µM,,> 100 µM,,> 100 µM,,,,> 100 µM,,> 100 µM,,> 100 µM,67.3 µM,
N/N=C(\CC1OC(=O)c2ccccc21)c1ccco1 (stereo not drawn),,> 100 µM,,> 100 µM,,,,> 100 µM,,,,> 100 µM,,> 100 µM,,> 100 µM,,> 100 µM,> 100 µM,
CC(=O)[CH-]C(=O)c1ccccc1.CC(=O)[CH-]C(=O)c1ccccc1.CC(=O)[CH-]C(=O)c1ccccc1.[Tl+3],48.7 µM,> 100 µM,25.9 µM,97.7 µM,11.1 µM,> 100 µM,74.3 µM,> 100 µM,,,> 100 µM,> 100 µM,57.1 µM,> 100 µM,15.7 µM,> 100 µM,42.1 µM,> 100 µM,30.9 µM,6.81 µM
Cn1nc(-c2ccccc2)c(N=[N+]=[N-])cc1=O,,> 100 µM,,> 100 µM,,> 100 µM,,> 100 µM,,,,> 100 µM,,> 100 µM,,,,> 100 µM,> 100 µM,
S=c1[nH]c(=S)c2sc(=S)n(-c3ccccc3)c2[nH]1,,> 100 µM,,> 100 µM,,> 100 µM,,> 100 µM,,,,> 100 µM,,> 100 µM,,> 100 µM,,> 100 µM,> 100 µM,
O=[N+]([O-])c1ccc(Sc2c3ccccc3nc3ccccc23)cc1,,> 100 µM,,> 100 µM,,> 100 µM,,> 100 µM,,,,,,> 100 µM,,> 100 µM,,> 100 µM,> 100 µM,
O=C(c1cc(F)c(Cl)cc1Cl)N1N=C(c2ccccc2)CC1(O)c1ccccc1 (stereo not drawn),32.9 µM,> 100 µM,17 µM,31.4 µM,11.5 µM,35.4 µM,16.2 µM,31.6 µM,12.9 µM,40.5 µM,11.8 µM,24 µM,12.1 µM,25.3 µM,18.1 µM,38 µM,27.8 µM,> 100 µM,,
CC(=O)OCSc1ncnc2c1ncn2CN1CCOCC1,,> 100 µM,,53.1 µM,,> 100 µM,,> 100 µM,,,,> 100 µM,,94.8 µM,,> 100 µM,,> 100 µM,> 100 µM,
CC(C)=CC(=O)Oc1ccc([N+](=O)[O-])cc1,,> 100 µM,,> 100 µM,,> 100 µM,,,,,,> 100 µM,,> 100 µM,,> 100 µM,,> 100 µM,> 100 µM,
N#CCc1ccc(C(C#N)/C(CCCC(=O)Nc2cccc([N+](=O)[O-])c2)=N\NC(=O)NN)cc1 (stereo not drawn),,> 100 µM,,> 100 µM,,> 100 µM,,> 100 µM,,,,> 100 µM,,> 100 µM,,> 100 µM,,> 100 µM,> 100 µM,
